The values that follow come from patent US20260048051A1, “TREATMENT OF INFLAMMATORY BOWEL DISEASE” (Atomwise Inc., priority 2024, published 2026).

One series is described as follows: Caco-2 permeability. The series is classed as in vitro ADME. The conditions noted are these: human, Caco-2. Here is the method:
(§1) Caco-2 cells were cultured for 21 days on a Transwell 96-well plate. The basal plate for changing the media was prepared by filling all wells of a 96-well sterile plate with 200 μL of Caco-2 media and placing it into an incubator. The apical section of the plate was lifted and lowered onto an empty basal plate. From the apical compartments containing 115 μL of cell media, 85 μL of the cell culture media was aspirated and replaced with 85 μL of fresh cell culture media. The basal plate was removed from the incubator and placed into a cell culture hood, while the apical section of the plate was returned to the basal plate and placed into the incubator.
(§2) Cells were fed one or two days prior to assay. A fresh basal plate was prepared by adding 200 μL of cell media to all wells and placing the plate in an incubator. The plate was then transferred from the incubator to the cell culture hood, where the apical compartment was lifted and placed onto an empty basal plate. 85 μL of media was removed from the apical wells and replaced with 85 μL of fresh media. The apical compartment of the plate was transferred to a basal plate and returned to the incubator.
(§3) On the day of the assay, 1 mL of 500-fold diluted compound solution was prepared in transport buffer. 62.5 μl of the prepared solution was used for the apical compartment, while 130 μl was used in the basal compartment. TEER measurements of the plate were taken. The dilutions were incubated for 15 minutes at 37° C. Basal assay plates were prepared by filling A→B wells of a 96-well sterile plate with 250 μl of transport buffer or B→A wells with 130 μl of diluted compound/control and 130 μl of HBSS and mixing 6-10 times with a multichannel pipette. 10 μl of samples were then collected form the basal compartments of the B→A wells for TO into the Quench Plates (shallow polypropylene plate, leaving 250 μl in each well). The basal assay plates were then placed into the incubator until use. The Caco-2 plate was placed in the hood and the apical section was lifted and placed onto an empty basal plate. 85 μl of the Caco-2 media was removed from the apical compartments containing 115 μl of cell culture media and replaced with 85 μl of fresh transport media. This was repeated twice for a total of 3 washes. 52.5 μl of buffer was then removed from the apical wells of the Caco-2 ready plates (leaving 62.5 μl buffer in the wells) and replaced with 62.5 of the diluted compound or control for the A→B wells or 52.5 μl of fresh transport buffer for the B→A wells. The total volume in the apical wells was assumed to be 125 μl for A→B and 115 μl for B→A. The apical wells were gently mixed 2-3 times with a multichannel pipette set to 50 μl and 10 μl of sample was collected from the apical compartments of A→B wells for TO into the TO Quench plates (shallow polypropylene plate). The total volume in all apical wells was 115 μl. The basal plate was removed from the incubator and transferred to the apical section of the basal plate and returned to the incubator. The TO samples were then diluted with 40 μl of transport buffer and 100 μl of quench solution was added. The cells were then kept cold. At T 2 hrs, 10 μl of sample was collected from all apical compartments and B→A basal compartments. 50 μl of sample was collected from the A→B compartments. The collected 10 μl of sample was then diluted with 40 μl of transport buffer. 100 μl of quench solution was then added to all T 2 hrs samples. After mixing, 50 μl of all TO and T 2 hrs samples were transferred to sample plates and diluted with 100 μl MilliQ water for bioanalysis. Final TEER measurements were taken after the completion of the assay.

A further series has as its system Caco-2 cells. Briefly: Caco-2 permeability. The series is classed as in vitro ADME. Here is the method:
as §1, §2, §3

Regarding `C[C@@H](c1ccc(Nc2cc(Nc3ncccc3S(C)(=O)=O)ncn2)nc1)N1CC2(COC2)C1` [Compound 1, (S)—N^4-(5-(1-(2-oxa-6-azaspiro[3.3]heptan-6-yl)ethyl)pyridin-2-yl)-N^6-(3-(methylsulfonyl)pyridin-2-yl)pyrimidine-4,6-diamine], in the series “Caco-2 permeability”, the apical-to-basolateral permeability (Papp A→B) at 2 h was around 6.02 ×10⁻⁶ cm/s and the efflux ratio at 2 h is 1.38. The “Caco-2 Papp, A-B” value in the series on Caco-2 cells amounted to 6.02 ×10⁻⁶ cm/s.
For the molecule `C[C@@H](c1ccc(Nc2cc(Nc3ncc(F)cc3S(C)(=O)=O)ncn2)nc1)N1CC2(COC2)C1` [Compound 2, (S)—N^4-(5-(1-(2-oxa-6-azaspiro[3.3]heptan-6-yl)ethyl)pyridin-2-yl)-N^6-(5-fluoro-3-(methylsulfonyl)pyridin-2-yl)pyrimidine-4,6-diamine], in “Caco-2 permeability”, the Papp A→B at 2 h was around 7.2 ×10⁻⁶ cm/s and the efflux ratio at 2 h amounted to 2.2. Besides, the “Caco-2 Papp, A-B” value with Caco-2 cells worked out at 7.51 ×10⁻⁶ cm/s.
